Measured values as given in patent publication US12030880B2, “Iminosulfanone compound as bromodomain protein inhibitor and pharmaceutical composition and medical use thereof” (CHIA TAI TIANQING PHARMACEUTICAL GROUP CO., LTD., priority 2018, dated 2024).

Key:
[1] = Animal pharmacokinetic study on compounds; type: in vivo; details: rat, po; male rats, single intragastric administration, 5 mg/kg, plasma
Method: Three healthy adult male rats that obtained from Beijing Vital River Laboratory Animal Technology Co., Ltd were used for the animal pharmacokinetic experiment. A compound was suspended in 2% absolute ethanol, 5% tween 80, 20% polyethylene glycol 400, and 73% (5% hydroxypropylmethyl cellulose in water) (V/V/V/V) at a concentration of 1 mg/mL. The administration volume was 5 mL/kg, and animals were treated with a single intragastric administration at a dose of 5 mg/kg. Animals were fasted overnight prior to the experiment, and the fasting time was from 10 hours before administration to 4 hours after administration. Blood was sampled at 0.25, 0.5, 1, 2, 4, 6, 8 and 24 hours after administration. Animals were lightly anesthetized with isoflurane, and approximately 0.4 mL of whole blood was collected from the orbital venous plexus using a glass blood collection tube, and placed in a heparin anticoagulation tube. The sample was centrifuged at 4200 rpm for 5 minutes at 4° C., and then the plasma was transferred to a centrifuge tube and stored at −80° C. until analyzed. In the plasma sample analysis, test compounds and internal standards (warfarin or propranolol) were extracted from rat plasma by acetonitrile protein precipitation, and the extracts were analyzed by LC/MS/MS. The measured plasma concentration-time data of the individual animals were analyzed using a non-compartmental model of WinNonlin (version no. 5.2.1; Pharsight) software to give pharmacokinetic parameters as shown in Table 3 below: the maximum (peak) plasma drug concentration Cmax; the time to peak Tmax; the half-life T1/2 and the area under the plasma concentration-time curve extrapolated to infinity AUC0-inf.

BRD4 (BD2) = BRD4 (BD2) (Homo sapiens (Human), UniProt O60885); test: In vitro BRD4 (BD2) enzymatic activity assay (HTRF); type: binding; details: GST-BRD4 (BD2, 349-460 aa)
Method: In the present application, IC50 values of the compounds in inhibiting BRD4 (BD2) enzyme binding reaction were determined by homogeneous time resolved fluorescence (HTRF). A compound was serially diluted 5-fold with 100% DMSO starting from 1 mM (7 concentrations in total), and then 2 μL of the compound at each concentration was added to 18 μL of a reaction buffer (20 mM HEPES pH 7.5, 150 mM NaCl, 5 mM DTT, 0.005% Tween 20, and 100 μg/mL BSA) for dilution. After being mixed well, 2 μL of the compound at each concentration was added to 48 μL of the above reaction buffer for dilution, and mixed well (final concentration of the compound in DMSO: 0.1%). 2.5 μL of the resulting mixture was added to a 384-well plate (OptiPlate-384, purchased from PerkinElmer), then 5 μL of GST-BRD4 (BD2, 349-460 aa) (final concentration: 2 nM) was added, and the resulting mixture was centrifuged, and fully mixed. 2.5 μL of a peptide Biotin-AHA-SGRGK(Ac)GGK(Ac)GLGK(Ac)GGAK(Ac) RHRKV (final concentration: 200 nM) was then added to initiate the reaction (total reaction volume: 10 μL). The 384-well plate was placed in an incubator at 23° C. to react for 1 hour, and then 5 μL of Eu3+ cryptate-labled anti-GST antibody (purchased from Cisbio) and 5 μL of Streptavidin-XL-665 (purchased from Cisbio) were added to terminate the reaction. After being incubated in the incubator for another 1 hour, the fluorescence values (excited at 320 nm, emitted light at 665 nm and 620 nm being detected, and the ratio of the two being the enzyme binding signal) were read on Envision (purchased from PerkinElmer). The binding strength of each compound to BRD4 (BD2) protein was determined respectively at 7 concentrations, and the data were calculated using GraphPad Prism software to obtain the IC50 value of the compound.

BRD4 (BD1) = BRD4 (BD1) (Homo sapiens (Human), UniProt O60885); test: In vitro BRD4 (BD1) enzymatic activity assay (HTRF); type: binding; details: GST-BRD4 (BD1, 44-168 aa)
Method: In the present application, IC50 values of the compounds in inhibiting BRD4 (BD1) enzyme binding reaction were determined by homogeneous time resolved fluorescence (HTRF). A compounds was serially diluted 5-fold with 100% DMSO starting from 0.2 mM (7 concentrations in total), and then 2 μL of the compound at each concentration was added to 48 μL of a reaction buffer (20 mM HEPES pH 7.5, 150 mM NaCl, 5 mM DTT, 0.005% Tween 20, and 100 μg/mL BSA) for dilution, and mixed well. 2.5 μL of the resulting mixture was added to a 384-well plate (OptiPlate-384, purchased from PerkinElmer), then 5 μL of GST-BRD4 (BD1, 44-168 aa) (final concentration: 1 nM) was added, and the resulting mixture was centrifuged, and fully mixed. 2.5 μL of a short peptide Biotin-AHA-SGRGK(Ac)GGK(Ac)GLGK(Ac)GGAK(Ac) RHRKV (final concentration: 100 nM) was then added to initiate the reaction (total reaction volume: 10 μL). The 384-well plate was placed in an incubator at 23° C. to react for 1 hour, and then 5 μL of Eu3+ cryptate-labled anti-GST antibody (purchased from Cisbio) and 5 μL of Streptavidin-XL-665 (purchased from Cisbio) were added to terminate the reaction. After being incubated in the incubator for another 1 hour, the fluorescence values (excited at 320 nm, emitted light at 665 nm and 620 nm being detected, and the ratio of the two being the enzyme binding signal) were read on Envision (purchased from PerkinElmer). The binding strength of each compound to BRD4 (BD1) protein was determined respectively at 7 concentrations, and the data were calculated using GraphPad Prism software to obtain the IC50 value of the compound.

MV4-11 cells = test: Cell proliferation activity assay in MV4-11; type: cell-based; details: Homo sapiens, inhibiting cell proliferation, 72 hours, Cell-Titer Blue
Method: (§1) Human acute lymphoblastic leukemia cell line MV4-11 cells were cultured in PRIM1640 medium plus 10% fetal bovine serum (FBS, purchased from Biological Industries, BI) and 1% penicillin/streptomycin double antibody (P/S, purchased from Life Technology) at 37° C. with 5% CO2. On the day before the compound test, MV4-11 cells were spread in a 96-well plate (purchased from Corning) at a concentration of 8000 cells/195 μL/well. After 24 hours, the compound was serially diluted 4-fold with 100% DMSO starting from 10 mM (9 concentrations in total), and then 2 μL of the compound at each concentration was added to 48 μL of PRIM1640 medium for dilution. 5 μL of the diluted compound at each concentration was added to the wells spread with the cell suspension, and the compound and cells were co-incubated in a cell incubator for 72 hours (3 days). Then the mixture was added with 35 μL of Cell-Titer Blue reagent (purchased from Promega) and incubated for another 4 hours. The fluorescence values (excited at 560 nm, detected at 590 nm) were then read on Flexstation III, and the data were calculated using GraphPad Prism software to give IC50 value of the compound in inhibiting cell proliferation.

Kasumi-1 cells = test: Cell proliferation activity assay in Kasumi-1; type: cell-based; details: Homo sapiens, inhibiting cell proliferation, 72 hours, Cell-Titer Blue
Method: as §1, with “myeloblastic” for “lymphoblastic”, “Kasumi-1” for “MV4-11”, “20%” for “10%”, “5000” for “8000”

| Structure (SMILES) | AUC(0-inf) [1] [ng·h/mL] | Cmax [1] [ng/mL] | Tmax [1] [h] | half-life [1] [h] | IC50 (BRD4 (BD2)) [nM] | IC50 (BRD4 (BD1)) [nM] | IC50 (MV4-11 cells) [nM] | IC50 (Kasumi-1 cells) [nM] |
| --- | --- | --- | --- | --- | --- | --- | --- | --- |
| Cn1cc(-c2cc(N=S(C)(C)=O)cnc2Oc2ccc(F)cc2F)c2cc[nH]c2c1=O [Example 4, 4-{2-(2,4-difluorophenoxy)-5-{[dimethyl(oxo)-λ^6-sulfanylidene]amino}-pyridin-3-yl}-6-methyl-1,6-dihydro-7H-pyrrolo[2,3-c]pyridin-7-one] | 2300 | 459 | 0.83 | 2.94 | 0.35 | 0.93 | 8.3 | 4.4 |
| Cn1cc(-c2cc(N=S(C)(C)=O)ccc2Oc2ccc(F)cc2F)c2cc[nH]c2c1=O [Example 5, 4-{2-(2,4-difluorophenoxy)-5-{[dimethyl(oxo)-λ^6-sulfanylidene]amino}phenyl}-6-methyl-1,6-dihydro-7H-pyrrolo[2,3-c]pyridin-7-one] | 2690 | 610 | 1 | 2.9 | 0.66 | 4.8 | 9.8 | 15.4 |
| CCNC(=O)c1cc2c(-c3cc(N=S(C)(C)=O)cnc3Oc3c(C)cc(F)cc3C)cn(C)c(=O)c2[nH]1 [Example 16, 4-{5-{[dimethyl(oxo)-λ^6-sulfanylidene]amino}-2-(4-fluoro-2,6-dimethylphenoxy)pyridin-3-yl}-N-ethyl-6-methyl-7-oxo-6,7-dihydro-1H-pyrrolo[2,3-c]pyridine-2-carboxamide] |  |  |  |  | 0.4 | 86.4 | 120 | 20.7 |
| Cn1cc(-c2nc(N=S(C)(C)=O)ccc2Oc2ccc(F)cc2F)c2cc[nH]c2c1=O [Example 18, 4-{3-(2,4-difluorophenoxy)-6-{[dimethyl(oxo)-λ^6-sulfanylidene]amino}-pyridin-2-yl}-6-methyl-1,6-dihydro-7H-pyrrolo[2,3-c]pyridin-7-one] |  |  |  | 5.25 |  |  | 3.14 | 1.56 |
| Cn1cc(-c2cc(N=S(C)(C)=O)ncc2Oc2ccc(F)cc2F)c2cc[nH]c2c1=O [Example 19, 4-{5-(2,4-difluorophenoxy)-2-{[dimethyl(oxo)-λ^6-sulfanylidene]amino}-pyridin-4-yl}-6-methyl-1,6-dihydro-7H-pyrrolo[2,3-c]pyridin-7-one] |  |  |  |  | 0.61 | 7.3 | 54 | 7.37 |
| Cc1cccc(Cl)c1Oc1ncc(N=S(C)(C)=O)cc1-c1cn(C)c(=O)c2[nH]ccc12 [Example 20, 4-{2-(2-chloro-6-methylphenoxy)-5-{[dimethyl(oxo)-λ^6-sulfanylidene]amino}-pyridin-3-yl}-6-methyl-1,6-dihydro-7H-pyrrolo[2,3-c]pyridin-7-one] |  |  |  |  | 0.27 | 12.9 | 75 | 9.25 |
| CCNC(=O)c1cc2c(-c3cc(N=S(C)(C)=O)cnc3Oc3c(C)cccc3Cl)cn(C)c(=O)c2[nH]1 [Example 21, 4-{2-(2-chloro-6-methylphenoxy)-5-{[dimethyl(oxo)-λ^6-sulfanylidene]amino}-pyridin-3-yl}-N-ethyl-6-methyl-7-oxo-6,7-dihydro-1H-pyrrolo[2,3-c]pyridine-2-carboxamide] |  |  |  |  | 0.13 | 10.7 | 138 | 18 |
